Measurements taken from patent US20090069324A1, “CHEMICAL INHIBITORS OF BFL-1 AND RELATED METHODS” (The Burnham Institute, priority 2007, published 2009).
Where “and” joins values, the source holds several entries; their conditions need not be identical. Identical values can stand only once. Entries after “also recorded” stand apart in the source; their conditions may differ.

Columns and labels:
[1] = target: T1, Bcl-2 (Homo sapiens, UniProt P10415); test: Bcl-2/FITC-Bim FPA selectivity assay; assay type: binding
T1 construct: lacking their C-terminal transmembrane domains (approximately last 20 amino-acids); GST (N); made in house; host or cells: XL-1 Blue cells (E. coli), pGEX 4T-1
T1 sequence (P10415 1-218 limits assumed): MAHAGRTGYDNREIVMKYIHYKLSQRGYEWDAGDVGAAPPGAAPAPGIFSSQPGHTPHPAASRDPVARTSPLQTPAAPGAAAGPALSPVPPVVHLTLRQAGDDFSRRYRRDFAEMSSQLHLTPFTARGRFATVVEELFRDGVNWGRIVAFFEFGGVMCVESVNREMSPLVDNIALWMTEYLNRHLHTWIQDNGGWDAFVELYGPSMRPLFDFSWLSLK
Excerpt: (§1) This example illustrates assays for determining the selectivity of chemical inhibitors for Bfl-1. Bfl-1, as with other Bcl-2 family proteins, participates in a very complex and intricate network of interactions with other representatives of the family. Therefore, two selectivity assays involving family members Bcl-2 and Bcl-B were developed.
(§2) For Bcl-2, a FITC-conjugated peptide corresponding to the BH3 domain of Bim was used. For Bcl-B, a FITC-conjugated peptide corresponding to a fragment of the TR3/Nur77 protein shown to bind this member of the Bcl-2 family was used.
(§3) Probe specificity for target or for cell-based/phenotypic assays data can be determined in orthogonal cell-based assay systems that address the pathway of interest. For example, compounds were tested in Bfl-1/FITC-Bid FPA and TR-FRET assays (FIGS. 7A and 7B, respectively), as well as Bcl-2/FITC-Bim FPA (FIG. 7C) and Bcl-B/FITC-TR3-R8 FPA (FIG. 7D) assays. Data represent concentration in μM x-axis) vs % displacement (y-axis).

[2] = target: T2, Bcl-B (Homo sapiens, UniProt Q9HD36); test: Bcl-B/FITC-TR3-R8 FPA selectivity assay; assay type: binding
T2 construct: lacking their C-terminal transmembrane domains (approximately last 20 amino-acids); GST (N); made in house; host or cells: XL-1 Blue cells (E. coli), pGEX 4T-1
T2 sequence (Q9HD36 1-182 limits assumed): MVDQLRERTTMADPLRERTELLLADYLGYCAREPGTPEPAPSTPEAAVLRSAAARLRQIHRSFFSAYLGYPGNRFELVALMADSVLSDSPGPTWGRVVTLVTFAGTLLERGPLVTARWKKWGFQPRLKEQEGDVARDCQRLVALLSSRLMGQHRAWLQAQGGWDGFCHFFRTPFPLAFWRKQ
Excerpt: as §1, §2, §3

[3] = target: T3, Bfl-1 (Homo sapiens, UniProt Q16548); test: Bfl-1 fluorescence polarization assay (FPA/FP), competition with FITC-Bid BH3 peptide; assay type: binding
T3 construct: lacking their C-terminal transmembrane domains (approximately last 20 amino-acids); made in house; host or cells: XL-1 Blue cells (E. coli), pGEX 4T-1
T3 sequence (Q16548 1-155 limits assumed): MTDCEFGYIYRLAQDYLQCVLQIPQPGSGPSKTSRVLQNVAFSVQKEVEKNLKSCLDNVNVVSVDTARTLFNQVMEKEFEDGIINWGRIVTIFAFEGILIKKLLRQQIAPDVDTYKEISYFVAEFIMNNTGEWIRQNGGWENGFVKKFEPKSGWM
Method: Fluorescence polarization assays (FPA). To determine the binding affinity of anti-apoptotic Bcl-2 polypeptides to FITC-conjugated Bid BH3 peptide, fluorescence polarization assays (FPAs) were performed according to published procedures (Zhai et al., Biochem. J. 376:229-236 (2003)). […] Fluorescence polarization was measured after 10 min using an Analyst™ AD Assay Detection System (LJL Biosystem, Sunnyvale, Calif.) in phosphate-buffered saline (PBS) (pH 7.4). The IC50 determinations were performed using GraphPad Prism software (GraphPad, Inc., San Diego, Calif.).
Competition assays. Using the same procedure outlined above, 100 nM of GST-Bfl-1 protein were incubated with the compounds at 50 μM concentration for 30 min. Then, 5 nM of FITC-Bid BH3 peptide was added. Fluorescence polarization was measured after 10 min. […]

[4] = target: T3, Bfl-1; test: Bfl-1 TR-FRET assay (FITC-Bid, Tb-anti-GST antibody); assay type: binding
Method: TR-FRET assay. For confirmation of FPA results, a TR-FRET assay utilizing terbium- (Tb-) labeled anti-GST antibody (Th-Ab) was developed. […] The reaction mixture was preincubated for 1 h, and TR-fluorescence (TRF) was measured on an M5 plate reader (Molecular Devices) using excitation at 340 nm and emission at […]. The measurements were averaged from 5 readings during 1 ms after an initial delay 0.1 ms. TR-FRET signal was calculated as the ratio of TR-Fluorescence at 520 nm to TR-Fluorescence at […].
For Bfl-1 TR-FRET assays, Bfl-1 protein and FITC-Bid peptide (FITC-Ahx-[…]) (SEQ ID NO: 1) were utilized. Terbium-anti-GST antibody (Tb-anti-GST Ab) was obtained from Invitrogen (San Diego Calif.). The assay buffer contained 25 mM Bis-Tris, pH 7.0, 1 mM TCEP, and 0.005% Tween 20. The Tb-Ab buffer contained 2.5 nM Tb-anti-GST antibody in assay buffer. The Bfl-1/Th-Ab working solution contained 5 nM Bfl-1 in Th-Ab assay buffer. The solution was prepared fresh and kept on ice prior to use. The FITC-Bid working solution contained 5.6 nM FITC-Bid in assay buffer.
For the Bfl-1 TR-FRET dose-response screening protocol, dose-response curves contained 10 concentrations of compounds obtained using 2-fold serial dilution. Compounds were serially diluted in 100% DMSO, and then diluted with water to 10% final DMSO concentration. A 4 μl aliquot of compounds in 10% DMSO was transferred into columns 3-22 of Greiner 384-well white small-volume plates. Columns 1-2 and 23-24 contained 4 μL of 10% DMSO.
Columns 1-2 were reserved for positive controls, and 8 μL of Th-Ab buffer was added using a WellMate bulk dispenser (Matrix). An aliquot of 8 μL of Bfl-1/Th-Ab working solution was added to columns 3-24 of Greiner 384 well white plates using a WellMate bulk dispenser (Matrix). Columns 23-24 represented negative control wells. Plates were incubated for 1 h at 4° C. An 8 μL aliquot of freshly prepared FITC-Bid working solution was added to the whole plate using WellMate bulk dispenser (Matrix). Plates were incubated for 4 h at room temperature protected from direct light. Fluorescence was measured on the M5 plate reader (excitation: 340 nm, emission: 490 and 520 nm, cutoff: 475 and 515 nm, respectively) in Time Resolved (TR) mode with signal integrated for 1 ms after initial delay of 0.1 ms. TR-FRET signal was calculated as the ratio of TR-Fluorescence at 520 nm to TR-Fluorescence at 490 nm. Data analysis was performed using a sigmoidal dose-response equation through non-linear regression.

[5] = test system: RS11846 B-lymphoma cell line; test: Induction of apoptosis, Annexin-FITC/PI flow cytometry; assay type: cell-based, human; settings: 16 hours incubation
Excerpt: To test compounds for their ability to induce apoptosis in cancer cells, the RS11846 B-lymphoma cell line was used. The RS11846 cell line was established from a patient with an aggressive form of diffuse large cell lymphoma, representing a subset of B-lymphoma in humans. This type of human B-lymphoma is characterized by infiltration beyond lymphoid compartment (bone marrow, spleen, lymph nodes, liver and etc.), typically infiltrate into ovary (in female), testis (in male), spinal cord and CNS (central nervous system) therefore given nomenclature of “diffuse.” Histo-pathologically, the RS11846 cell line is diffuse large cell B-lymphoma, thus representing an immature, aggressive form of the disease. […] Therefore, this cell line is suitable for examining biological effects of Bfl-1 antagonists concerned in this patent application.
For the assay to test compounds for their ability to induce apoptosis, the RS11846 B-lymphoma cell line was cultured in RPMI-1640 supplemented by 10% FBS and Penicillin/Streptomycin. The cells were seeded at cell density of half a million cells per ml, and incubation time was 16 hours. In the assay, cell viability was analyzed by the Annexin-FITC/PI method, using flow cytometry, or FACS analysis. Viable cells were defined by Annexin-FITC-negative, PI-negative. Compensation was done using conventional methods and using the Flo-jo program.
IC50 (50% killing) was determined using an extrapolation method based on the finding that biological response is almost linear near at 50% inhibition point when plotted against semi-log scale on X-axis. See, D. J. Finney, Statistical Method in Biological Assay, Griffin, London, 1978. Briefly, % viability was plotted on Y-axis on an ordinary scale, while drug concentration was plotted on X-axis on a semi-log scale. The actual 50% inhibition point is on the line between left-bracket (higher than 50% inhibition) and right bracket (lower than 50% inhibition), and it can be extrapolated on the line on a semi-log scale. Thus, IC50 was extrapolated via left bracketing and right bracketing, and extrapolated on a semi-log scale, and then, re-converted back to an ordinary scale.

[6] = test system: anti-apoptotic members of the Bcl-2-family; test: FPA competition assay, GST-Bcl-2 fusion proteins with FITC-Bid BH3 peptide in PBS; assay type: binding, human; settings: 100 nM GST-fusion proteins, 5 nM FITC-Bid BH3 peptide
Method: Bcl-2-binding compounds were tested by competition assay analysis. The green tea compound […] (EGCG) has been reported to bind Bcl-2 and Bcl-XL (Leone et al., Cancer Res 63:8118-8121 (2003)). The ability of EGCG to compete with fluorochrome-labeled BH3 peptides was confirmed by FPA. 100 nM of GST-Bcl-2 fusion proteins were incubated with various concentrations of EGCG or control compound ECG (“C”) for 2 min in PBS buffer in 50 uL. Next, 5 nM FITC-conjugated-Bid BH3 peptide was added, bringing final volume to 100 uL and final DMSO concentration to 1%. Fluorescence polarization was measured after 20 min. […] This compound therefore can serve as a positive control when performing high throughput screens of a chemical library.

[7] = Solubility
Method: Compounds were screened for inhibitory activity of Bfl-1 essentially as described in Example 1, and including a 1 h incubation of Bfl-1 in the presence of compounds and a 4 h incubation after the subsequent addition of the fluorescent probe. […] The assay was screened against the entire NIH small molecule library, which at the time consisted of 65,000 compounds. […] Controls included an “artifact” plate on which a GAPDH assay was performed to check selectivity, and a solubility plate on which a solubility assay was performed to test solubility.

[8] = Tables 3-5, read-out: Bfl-1 TR FRET IC50

CC(C)C(C(=O)O)N1C(=O)/C(=C/c2ccc(Br)cc2)SC1=S (stereo not shown) [BH3I-1, (Z)-2-(5-(4-Bromobenzylidene)-4-oxo-2-thioxothiazolidin-3-yl)-3-methylbutanoic acid, reference compound]
IC50 ([1]; read-out: Bcl-2 (FP): IC50): 1140 nM
IC50 ([2]; read-out: Bcl-B (FP): IC50): 1080 nM
IC50 ([3]; conditions not stated, not the assay with 0.005% Tween 20, read-out: Bfl-1 (FP): IC50): 4650 nM
IC50 ([3]; in the presence of 0.005% Tween 20, read-out: IC50 in Bfl-1 FP assay): > 20000 nM

CN1CCN(C2=C(Cl)C(=O)N(c3ccc(Cl)c(Cl)c3)C2=O)CC1 [CID-1180676, 3-chloro-1-(3,4-dichlorophenyl)-4-(4-methylpiperazin-1-yl)pyrrole-2,5-dione]
Competition for binding of a BH3 peptide to Bcl-2, in words ([1]; Bcl-2/FITC-Bim complex): limited activity
Effect on complex of Bcl-B/FITC-TR3-R8, in words [2]: did not affect
Bfl-1 FP assay, activity in words ([3]; Bfl-1/FITC-Bid): submicromolar potency; also recorded: potently disrupt
IC50 ([3]; Tables 3-5, read-out: Bfl-1 FP IC50): 750 nM
IC50 ([3]; Tables 7-8, Avg where the cell lists several determinations, read-out: Bfl-1 FPA IC50): 617 nM
Bfl-1 TR-FRET assay, activity in words ([4]; Bfl-1/FITC-Bid): submicromolar potency; also recorded: potently disrupt
IC50 [4, 8]: 0.56 µM
IC50 ([4]; Tables 7-8, Avg where the cell lists several determinations, read-out: Bfl-1 TR-FRET IC50): 0.479 µM
Bfl-1 TR-FRET IC50 (uM), individual determinations ([4]; Tables 7-8, single values listed before the Avg): nofit
IC50 ([4]; Tables 7-8, single values listed before the Avg, read-out: Bfl-1 TR-FRET IC50 (uM), individual determinations): 0.304 µM and 0.443 µM and 0.317 µM and 0.471 µM and 0.445 µM and 1.09 µM and 0.475 µM and 0.584 µM and 0.186 µM

CCOC(=O)CS(=O)(=O)c1nc(-c2ccccc2)cc(C(F)(F)F)n1 [Compound 3]
induction of apoptosis [5]: induction of apoptosis

CCOC(=O)CS(=O)(=O)c1nc(-c2ccc(F)cc2)cc(C(F)(F)F)n1 [Compound 9]
induction of apoptosis [5]: induction of apoptosis

COc1ccc(-c2cc(N)n(S(=O)(=O)c3c(F)c(F)c(F)c(F)c3F)n2)cc1OC [Compound 10]
induction of apoptosis [5]: induction of apoptosis

COc1ccc(-c2cc(C(F)(F)F)nc(S(C)(=O)=O)n2)cc1OC [Compound 11]
induction of apoptosis [5]: induction of apoptosis

O=C(O[C@@H]1Cc2c(O)cc(O)cc2O[C@@H]1c1cc(O)c(O)c(O)c1)c1cc(O)c(O)c(O)c1 [ECGC, epigallecatechin]
binding to anti-apoptotic Bcl-2-family members [6]: binds to all six anti-apoptotic members of the Bcl-2-family

O=C1C(Cl)=C(N2CCN(CCOCCO)CC2)C(=O)N1c1ccc(Cl)c(Cl)c1 [MLS-0090861]
aqueous solubility compared with CID-1180676 [7]: enhanced aqueous solubility
IC50 ([3]; text b268, assay not stated (equals FP value of Table 5), read-out: IC50): 470 nM
IC50 [4, 8]: 0.42 µM
